Test results taken from patent US20070167387A1, “Novel artificial nucleic acids of n-o bond crosslinkage type” (TAKESHI IMANISHI, priority 2003, published 2007).

What was measured:
Format in all cases: binding
[1] = test system: dsDNA 5′-d(GCTGCT AAAAAGAAAGAGAGATCGTCG)-3′ / 3′-d(CGACGATTTTTCTTTCTCTCTAGCAGC)-5′; experiment: Tm measurement, triplex-forming capacity with dsDNA, with MgCl2 (Table 5-2); settings: 140 mM KCl, 10 mM MgCl2, 7 mM Na2HPO4 buffer (pH 7.0), each strand 1.5 μM
Experimental: (§1) Sample solutions (500 μL) with end concentrations of NaCl 100 mM, sodium phosphate buffer (pH 7.2) 10 mM, antisense strand 4 μM, and sense strand 4 μM were bathed in boiling water, and cooled down to room temperature over the course of 10 hours. A stream of nitrogen was flowed through a cell chamber of a spectrophotometer (Beckman, DU-650) to prevent dew formation, and the sample solutions were gradually cooled down to 5° C. Further, the sample solutions were maintained at 10° C. for 20 minutes, and then their measurements were started. The temperature was raised up to 90° C. at a rate of 0.5° C./min, and the ultraviolet absorption at 260 nm was measured.
(§2) In connection with the oligonucleotide analogues (6) to (11) and (18) to (21) synthesized in the Examples, the triplex-forming capacity with the target double-stranded DNA's indicated below was investigated by the same method as in Experimental Example 1. The salt concentrations and pH during measurement complied with the conditions described below the respective tables.

[2] = test system: dsDNA 5′-d(GCT AAAAAGAAAGAGAGATCG)-3′ / 3′-d(CGATTTTTCTTTCTCTCTAGC)-5′; experiment: Tm measurement, triplex-forming capacity with dsDNA (Table 5-1); settings: 140 mM KCl, 7 mM Na2HPO4 buffer (pH 7.0), each strand 1.5 μM
Experimental: as §1, §2

[3] = test system: dsDNA 5′-d([…])-3′ / 3′-d(CGATTTTTCTNTCTCTCTAGC)-5′; experiment: Sequence selective triplex-formation, match and mismatch dsDNA (Table 5-3); settings: for Tm: 140 mM KCl, 7 mM sodium phosphate buffer (pH 7.0), each strand 1.5 μM
Experimental: as §1, §2

[4] = test system: RNA strand (5′-AGCAAAAAACGC-3′); experiment: Melting point (Tm) measurement, duplex-forming capacity with RNA strand; settings: 100 mM NaCl, 10 mM Na2HPO4 buffer (pH7.2), [strand] = 4 μM, average of 3 or more experiments
Experimental: (§3) The oligonucleotide analogues (1) to (5) and (13) to (17) synthesized in the Examples (i.e., antisense strands), and a sense strand of a natural DNA or RNA oligonucleotide were annealed. The melting points (Tm) of the annealing products were measured to investigate the duplex-forming capacity of the antisense strands.
as §1

[5] = test system: DNA strand (5′-AGCAAAAAACGC-3′); experiment: Melting point (Tm) measurement, duplex-forming capacity with DNA strand; settings: 100 mM NaCl, 10 mM Na2HPO4 buffer (pH7.2), [strand] = 4 μM, average of 3 or more experiments
Experimental: as §3, §1

Row | Substance | Tm [1] [°C] | ΔTm/modification [1] | Tm [2] [°C] | ΔTm/modification [2] | other results
1 | 5′-TTTTT^mCYYY^mCT^mCT^mCT-3′ [Oligonucleotide analogue (20)] | 71 | +9.3 °C | 59 | +8.7 °C | 
2 | 5′-TTTTX^mCTXT^mCX^mCT^mCT-3′ [Oligonucleotide analogue (7)] | 61 | +6.0 °C | 47 | +4.6 °C | 
3 | 5′-XTTTX^mCTTX^mCT^mCX^mCT-3′ [Oligonucleotide analogue (11)] | 59 | +4.0 °C | 45 | +3.0 °C | 
4 | 5′-TTTTY^mCTYT^mCY^mCT^mCT-3′ [Oligonucleotide analogue (19)] | 73 | +10.0 °C | 60 | +9.0 °C | 
5 | 5′-YTYTY^mCYTY^mCY^mCY^mCT-3′ [Oligonucleotide analogue (21)] | > 80 | > +5 °C | 78 | +6.4 °C | 
6 | 5′-TTTTT^mCTTT^mCT^mCT^mCT-3′ (TTTTTCTTTCTCTCT; all C 5-methyl, sugars by position and backbone not given here) [unmodified triplex-forming oligonucleotide, Z = natural T, reference compound] | 43 |  | 33 |  | Tm ([3]; M·N = A·T (match)): 43 °C; ΔTm = Tm(mismatch) − Tm(match) ([3]; M·N = C·G): −18 °C; Tm ([3]; M·N = C·G (mismatch)): 25 °C; ΔTm = Tm(mismatch) − Tm(match) ([3]; M·N = G·C): −22 °C; Tm ([3]; M·N = G·C (mismatch)): 21 °C; ΔTm = Tm(mismatch) − Tm(match) ([3]; M·N = T·A): −25 °C; Tm ([3]; M·N = T·A (mismatch)): 18 °C
7 | 5′-XTXTX^mCXTX^mCX^mCX^mCT-3′ [Oligonucleotide analogue (9)] | > 80 | > +5 °C | 59 | +3.7 °C | 
8 | 5′-GCGTTTTTTGCT-3′ (unmodified DNA) [natural antisense strand, reference compound] |  |  |  |  | Tm [4]: 45 °C; Tm [5]: 50 °C
9 | 5′-TXTTX^mCTXT^mCX^mCTX*T-3′ [Oligonucleotide analogue (10)] | 63 | +4.0 °C | 50 | +3.4 °C | 
